Columns and labels:
lipoamide = compound: NC(=O)CCCCC1CCSS1 [lipoamide]; test: thermal stability z-score vs DMSO; higher = more thermally stabilized by treatment; settings: HeLa, lipoamide concentration 100 µM
Procedure: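 Cellular thermal proteome profiling in HeLa cells. Cells were treated with 100 µM lipoamide for 1 h, with or without 1 mM arsenate for a further 1 h, then heated to ten temperatures (37-66.3 °C), and soluble protein was quantified by TMT mass spectrometry relative to 0.1% DMSO controls. The thermal stability score (sum of log2 fold changes minus the abundance score) was transformed to a z-score; mean of n = 3 experiments.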

potassium arsenate = compound: O=[As]([O-])(O)O.[K+] [potassium arsenate]; test: as above; settings: HeLa; arsenate concentration 1 mM
Procedure: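 Cellular thermal proteome profiling in HeLa cells treated with 1 mM arsenate for 1 h (DMSO pretreatment), heated to ten temperatures (37-66.3 °C). Soluble protein was quantified by TMT mass spectrometry relative to DMSO controls; the thermal stability score was transformed to a z-score; mean of n = 3 experiments.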

[1] = arsenate co-treatment: 1 mM arsenate 1 h
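Note: each temperature applied for 3 min, abundance score taken as mean log2 fold change at the two lowest temperatures, z-score obtained by mean subtraction and division by SD.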

Sequence of UniProt Q99805 (Q99805 whole entry): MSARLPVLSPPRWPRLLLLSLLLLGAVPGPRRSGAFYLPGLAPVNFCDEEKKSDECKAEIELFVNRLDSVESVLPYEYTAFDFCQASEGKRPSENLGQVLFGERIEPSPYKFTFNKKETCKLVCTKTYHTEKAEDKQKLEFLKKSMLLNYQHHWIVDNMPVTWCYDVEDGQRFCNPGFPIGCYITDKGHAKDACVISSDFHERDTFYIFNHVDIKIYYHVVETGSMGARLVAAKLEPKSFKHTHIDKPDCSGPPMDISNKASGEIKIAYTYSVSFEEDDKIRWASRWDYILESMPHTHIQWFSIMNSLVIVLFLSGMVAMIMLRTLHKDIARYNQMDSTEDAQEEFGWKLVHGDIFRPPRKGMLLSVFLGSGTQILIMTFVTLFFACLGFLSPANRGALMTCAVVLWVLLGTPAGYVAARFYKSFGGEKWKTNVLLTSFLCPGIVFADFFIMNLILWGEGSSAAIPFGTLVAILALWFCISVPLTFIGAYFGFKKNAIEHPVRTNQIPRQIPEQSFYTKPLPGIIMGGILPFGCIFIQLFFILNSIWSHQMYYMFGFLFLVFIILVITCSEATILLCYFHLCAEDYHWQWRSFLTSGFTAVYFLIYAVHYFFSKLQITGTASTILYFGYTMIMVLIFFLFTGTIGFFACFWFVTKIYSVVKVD
Sequence of UniProt Q504Q3 (Q504Q3 whole entry): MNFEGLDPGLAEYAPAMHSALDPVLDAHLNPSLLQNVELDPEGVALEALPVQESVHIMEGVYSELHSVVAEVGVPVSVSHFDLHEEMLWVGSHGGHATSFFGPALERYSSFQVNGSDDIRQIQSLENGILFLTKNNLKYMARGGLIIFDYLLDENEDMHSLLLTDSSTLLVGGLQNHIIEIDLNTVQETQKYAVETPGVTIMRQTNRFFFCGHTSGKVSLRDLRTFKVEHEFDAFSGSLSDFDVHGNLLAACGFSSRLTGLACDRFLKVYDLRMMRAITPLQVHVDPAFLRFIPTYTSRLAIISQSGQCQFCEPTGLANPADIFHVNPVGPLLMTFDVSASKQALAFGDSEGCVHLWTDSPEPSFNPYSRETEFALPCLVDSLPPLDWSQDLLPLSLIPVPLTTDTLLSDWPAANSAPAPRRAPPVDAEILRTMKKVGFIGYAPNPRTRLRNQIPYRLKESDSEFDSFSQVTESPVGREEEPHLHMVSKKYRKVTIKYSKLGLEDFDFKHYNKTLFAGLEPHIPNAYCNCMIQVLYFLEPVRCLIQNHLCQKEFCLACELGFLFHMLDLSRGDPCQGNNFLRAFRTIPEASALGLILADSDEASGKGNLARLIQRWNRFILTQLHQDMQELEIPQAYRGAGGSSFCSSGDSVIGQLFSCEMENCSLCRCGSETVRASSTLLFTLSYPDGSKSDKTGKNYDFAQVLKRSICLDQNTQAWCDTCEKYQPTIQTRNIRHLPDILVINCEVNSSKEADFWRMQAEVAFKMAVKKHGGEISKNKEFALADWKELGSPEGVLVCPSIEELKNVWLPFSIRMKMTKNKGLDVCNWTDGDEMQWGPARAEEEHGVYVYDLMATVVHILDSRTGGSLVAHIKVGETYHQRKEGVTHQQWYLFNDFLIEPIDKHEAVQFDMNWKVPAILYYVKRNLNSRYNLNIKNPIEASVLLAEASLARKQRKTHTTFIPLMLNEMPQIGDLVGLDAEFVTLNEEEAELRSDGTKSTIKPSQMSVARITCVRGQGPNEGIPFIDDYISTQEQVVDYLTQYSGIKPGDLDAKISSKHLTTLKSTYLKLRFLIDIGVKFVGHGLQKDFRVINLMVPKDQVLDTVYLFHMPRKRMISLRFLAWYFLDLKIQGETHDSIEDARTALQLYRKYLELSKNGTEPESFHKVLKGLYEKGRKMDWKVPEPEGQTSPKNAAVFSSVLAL
Sequence of UniProt Q9BZX2 (Q9BZX2 whole entry): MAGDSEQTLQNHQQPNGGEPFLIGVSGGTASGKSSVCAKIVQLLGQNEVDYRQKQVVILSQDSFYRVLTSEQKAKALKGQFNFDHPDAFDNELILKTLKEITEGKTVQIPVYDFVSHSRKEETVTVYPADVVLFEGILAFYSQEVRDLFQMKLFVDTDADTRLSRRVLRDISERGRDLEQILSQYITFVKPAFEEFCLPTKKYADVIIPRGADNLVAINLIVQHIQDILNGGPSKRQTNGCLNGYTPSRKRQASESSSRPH
Sequence of UniProt Q9HAV4 (Q9HAV4 whole entry): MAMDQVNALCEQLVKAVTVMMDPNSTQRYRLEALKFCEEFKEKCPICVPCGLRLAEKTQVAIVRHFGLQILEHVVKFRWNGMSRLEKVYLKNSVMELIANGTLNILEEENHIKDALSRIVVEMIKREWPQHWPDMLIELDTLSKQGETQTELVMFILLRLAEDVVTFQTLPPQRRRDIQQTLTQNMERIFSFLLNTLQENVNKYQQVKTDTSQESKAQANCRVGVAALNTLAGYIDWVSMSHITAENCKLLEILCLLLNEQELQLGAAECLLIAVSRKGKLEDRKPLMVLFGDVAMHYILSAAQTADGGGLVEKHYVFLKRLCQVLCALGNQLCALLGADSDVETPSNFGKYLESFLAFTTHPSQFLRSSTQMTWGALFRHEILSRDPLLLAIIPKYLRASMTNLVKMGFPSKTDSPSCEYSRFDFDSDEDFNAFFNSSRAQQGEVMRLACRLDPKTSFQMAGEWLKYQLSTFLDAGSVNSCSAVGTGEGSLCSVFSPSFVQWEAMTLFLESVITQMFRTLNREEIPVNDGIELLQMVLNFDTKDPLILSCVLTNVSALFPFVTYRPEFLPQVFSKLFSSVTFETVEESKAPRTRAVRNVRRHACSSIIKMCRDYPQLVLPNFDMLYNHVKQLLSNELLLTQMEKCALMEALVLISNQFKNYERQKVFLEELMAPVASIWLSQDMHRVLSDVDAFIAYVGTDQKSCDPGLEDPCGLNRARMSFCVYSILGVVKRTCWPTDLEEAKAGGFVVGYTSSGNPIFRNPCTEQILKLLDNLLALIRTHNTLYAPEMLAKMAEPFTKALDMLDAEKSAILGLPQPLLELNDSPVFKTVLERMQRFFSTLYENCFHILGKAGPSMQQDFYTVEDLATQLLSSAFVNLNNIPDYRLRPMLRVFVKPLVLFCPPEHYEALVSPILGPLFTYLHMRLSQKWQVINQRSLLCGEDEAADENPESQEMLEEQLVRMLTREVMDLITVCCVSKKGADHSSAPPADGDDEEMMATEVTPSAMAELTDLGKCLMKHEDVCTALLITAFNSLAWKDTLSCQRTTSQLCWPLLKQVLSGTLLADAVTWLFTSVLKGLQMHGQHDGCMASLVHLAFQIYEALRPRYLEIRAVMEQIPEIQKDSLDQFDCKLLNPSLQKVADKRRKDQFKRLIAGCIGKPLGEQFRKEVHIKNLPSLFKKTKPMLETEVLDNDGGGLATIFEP
Sequence of UniProt Q6ZSJ8 (Q6ZSJ8 whole entry): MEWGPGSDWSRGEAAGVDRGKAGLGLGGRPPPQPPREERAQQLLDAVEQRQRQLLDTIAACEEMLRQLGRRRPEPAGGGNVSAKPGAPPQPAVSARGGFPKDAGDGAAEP
Sequence of UniProt Q8WW59 (Q8WW59 whole entry): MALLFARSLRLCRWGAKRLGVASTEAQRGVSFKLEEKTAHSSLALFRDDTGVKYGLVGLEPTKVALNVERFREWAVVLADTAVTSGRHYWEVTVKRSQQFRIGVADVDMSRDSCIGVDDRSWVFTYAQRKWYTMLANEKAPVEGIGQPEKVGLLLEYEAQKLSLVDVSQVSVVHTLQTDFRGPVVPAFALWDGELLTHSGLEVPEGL
Sequence of UniProt P34897 (P34897 whole entry): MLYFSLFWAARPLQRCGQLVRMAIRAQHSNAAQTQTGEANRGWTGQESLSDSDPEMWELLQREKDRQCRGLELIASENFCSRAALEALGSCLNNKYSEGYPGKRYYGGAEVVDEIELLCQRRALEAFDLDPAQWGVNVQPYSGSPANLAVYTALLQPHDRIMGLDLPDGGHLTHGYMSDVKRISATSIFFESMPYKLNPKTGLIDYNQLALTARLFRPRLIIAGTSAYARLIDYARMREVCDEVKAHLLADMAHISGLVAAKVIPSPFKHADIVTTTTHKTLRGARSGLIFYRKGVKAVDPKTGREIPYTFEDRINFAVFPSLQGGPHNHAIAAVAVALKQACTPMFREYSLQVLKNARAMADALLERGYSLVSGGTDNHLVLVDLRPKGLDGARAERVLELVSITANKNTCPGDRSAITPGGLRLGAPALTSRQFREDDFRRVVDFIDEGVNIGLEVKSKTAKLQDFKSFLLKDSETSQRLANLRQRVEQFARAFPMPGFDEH
Sequence of UniProt Q96ER9 (Q96ER9 whole entry): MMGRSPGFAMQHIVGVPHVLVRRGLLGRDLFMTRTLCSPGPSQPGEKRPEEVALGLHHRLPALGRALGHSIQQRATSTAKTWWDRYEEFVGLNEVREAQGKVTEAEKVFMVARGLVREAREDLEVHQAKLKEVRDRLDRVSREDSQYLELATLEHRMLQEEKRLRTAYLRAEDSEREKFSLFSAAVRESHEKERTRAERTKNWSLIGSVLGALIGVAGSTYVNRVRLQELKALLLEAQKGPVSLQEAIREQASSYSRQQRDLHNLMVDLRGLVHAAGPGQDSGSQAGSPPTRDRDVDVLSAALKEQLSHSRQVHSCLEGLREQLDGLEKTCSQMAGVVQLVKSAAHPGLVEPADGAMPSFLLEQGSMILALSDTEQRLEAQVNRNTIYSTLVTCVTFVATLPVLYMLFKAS
Sequence of UniProt P16989 (P16989 whole entry): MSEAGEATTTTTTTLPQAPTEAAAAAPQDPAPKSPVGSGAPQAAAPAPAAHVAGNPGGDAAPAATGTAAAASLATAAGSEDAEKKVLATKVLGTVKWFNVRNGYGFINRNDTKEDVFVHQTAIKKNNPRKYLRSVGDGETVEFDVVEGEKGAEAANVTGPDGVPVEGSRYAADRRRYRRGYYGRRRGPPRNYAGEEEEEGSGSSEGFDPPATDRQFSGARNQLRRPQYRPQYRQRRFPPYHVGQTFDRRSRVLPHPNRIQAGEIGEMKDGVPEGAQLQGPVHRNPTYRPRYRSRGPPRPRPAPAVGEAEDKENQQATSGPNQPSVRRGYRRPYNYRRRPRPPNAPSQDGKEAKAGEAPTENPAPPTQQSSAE

Target | thermal stability z-score (lipoamide; [1]) | thermal stability z-score (lipoamide; arsenate co-treatment: none) | thermal stability z-score (potassium arsenate)
MMP15 (UniProt P51511) | -0.901 | -0.632 | -0.00399
DDX39A (UniProt O00148) | -0.214 | 0.12 | 0.441
PES1 (UniProt O00541) | -0.108 | 0.121 | -0.721
TTC4 (UniProt O95801) | -0.0544 | 0.0918 | -0.14
DNAJC21 (UniProt Q5F1R6) | -0.615 | -0.205 | 0.00418
SLC3A2 (UniProt P08195) | 0.528 | 0.49 | 0.0559
PTBP1 (UniProt P26599) | 1.1 | 1.82 | 0.184
OASL (UniProt Q15646) | -0.147 | -0.0704 | -0.307
C3ORF58 (UniProt Q8NDZ4) | -0.093 | -0.000578 | 0.287
UFC1 (UniProt Q9Y3C8) | 0.984 | 0.773 | 0.281
DDX28 (UniProt Q9NUL7) | -0.0583 | 0.0995 | 0.0334
CRABP2 (UniProt P29373) | 0.359 | 1.24 | 0.378
YBX3 (UniProt P16989) | 0.153 | -0.0445 | -0.672
EMC8 (UniProt O43402) | 0.0729 | 0.209 | 0.348
CCDC51 (UniProt Q96ER9) | -0.68 | -0.14 | -0.324
SPNS1 (UniProt Q9H2V7) | -0.826 | 0.677 | 0.547
PSMD9 (UniProt O00233) | -0.33 | 0.295 | -0.281
HNRNPDL (UniProt O14979) | 0.895 | 0.34 | -1.85
AKIRIN2 (UniProt Q53H80) | 0.0163 | -0.00376 | 0.307
UCK2 (UniProt Q9BZX2) | -0.0152 | 0.141 | 0.093
PPP4R1 (UniProt Q8TF05) | 0.26 | 0.0864 | 0.0118
SHMT2 (UniProt P34897) | -0.198 | -0.436 | 0.0996
TMEM208 (UniProt Q9BTX3) | 0.0799 | -0.132 | -0.159
ACTR1B (UniProt P42025) | 1.04 | 0.945 | 0.0363

Target | thermal stability z-score (lipoamide; [1]) | thermal stability z-score (lipoamide; arsenate co-treatment: none) | thermal stability z-score (potassium arsenate)
IWS1 (UniProt Q96ST2) | -0.094 | 0.636 | 0.949
IRS2 (UniProt Q9Y4H2) | -0.525 | -0.112 | -1.42
BLOC1S4 (UniProt Q9NUP1) | 1.47 | 0.395 | 0.401
SIRT6 (UniProt Q8N6T7) | -0.0481 | -0.176 | -0.21
MRPL38 (UniProt Q96DV4) | -0.319 | -0.0312 | 0.134
CHM (UniProt P24386) | 0.191 | 0.152 | -0.22
AMD1 (UniProt P17707) | 0.96 | 0.512 | -0.105
MPP6 | -0.288 | -0.0854 | -0.29
HNRNPA1 (UniProt P09651) | -1.06 | -1.24 | -1.94
NDUFA8 (UniProt P51970) | -0.418 | -0.772 | 0.0194
LTN1 (UniProt O94822) | 0.0185 | 0.0878 | 0.0334
SPRYD4 (UniProt Q8WW59) | 2.66 | 2.54 | 1.75
MRPL57 (UniProt Q9BQC6) | 0.281 | 0.104 | 0.671
XPO5 (UniProt Q9HAV4) | -0.576 | -0.108 | -0.103
CDC42 (UniProt P60953) | 0.932 | 0.454 | 0.0976
BNIP2 (UniProt Q12982) | 1.13 | 0.0699 | 0.641
SNX3 (UniProt O60493) | -0.62 | -0.231 | 0.0169
SH3KBP1 (UniProt Q96B97) | 0.46 | 0.0841 | -0.523
C1ORF122 (UniProt Q6ZSJ8) | 1.07 | 1.18 | 0.28
IPO8 (UniProt O15397) | -0.327 | -0.557 | 0.756
FOXP4 (UniProt Q8IVH2) | -0.605 | -0.281 | 0.363
PAN2 (UniProt Q504Q3) | 0.0953 | -0.21 | -0.143
RPA1 (UniProt P27694) | -0.6 | -0.317 | 0.0213
DDX11 (UniProt Q96FC9) | -0.753 | -0.517 | 1.07

Target | thermal stability z-score (lipoamide; [1]) | thermal stability z-score (lipoamide; arsenate co-treatment: none) | thermal stability z-score (potassium arsenate)
LRRC8E (UniProt Q6NSJ5) | 0.43 | -0.139 | -0.237
IQGAP1 (UniProt P46940) | 0.776 | 0.818 | -1.08
HELB (UniProt Q8NG08) | -0.468 | -0.74 | -0.671
TPM2 (UniProt P07951) | 0.624 | 0.462 | -0.068
ZFP36L2 (UniProt P47974) | -0.198 | 0.12 | -0.0646
EAF1 (UniProt Q96JC9) | 1.02 | 0.0799 | -0.000349
ABHD16A (UniProt O95870) | -0.193 | -0.0821 | 1.11
IP6K1 (UniProt Q92551) | 0.327 | -0.471 | -0.179
COX11 (UniProt Q9Y6N1) | 0.0437 | -0.0617 | 0.0514
AGO1 (UniProt Q9UL18) | -0.0919 | -0.396 | -0.337
ZYG11B (UniProt Q9C0D3) | -0.0727 | -0.16 | -0.142
MRPL40 (UniProt Q9NQ50) | 0.157 | 0.0972 | -0.0198
SERPINH1 (UniProt P50454) | -3.31 | -2.2 | 0.567
ZBTB10 (UniProt Q96DT7) | 0.00974 | -0.093 | -0.307
WBP4 (UniProt O75554) | 1.32 | 0.617 | -2.19
RNF126 (UniProt Q9BV68) | -1 | -1.02 | -2.65
ANXA5 (UniProt P08758) | 1.34 | 1.22 | 0.601
PAPSS2 (UniProt O95340) | -0.146 | -0.156 | 1.57
C16ORF13 (UniProt Q96S19) | 0.306 | 0.154 | 0.536
CEPT1 (UniProt Q9Y6K0) | 0.685 | 0.4 | 0.959
TMEM63A (UniProt O94886) | -0.739 | -0.0217 | -0.159
SMYD3 (UniProt Q9H7B4) | -0.135 | -0.101 | -0.25
TM9SF2 (UniProt Q99805) | -0.509 | -0.486 | 1.03

From the supplement of paper PMC12463676, “Small-molecule dissolution of stress granules by redox modulation benefits ALS models” (Nature Chemical Biology, 2025)
